Laboratory results taken from US3981868A.
Converted amounts (≈) assume the structure as drawn.

Assays:
[1] = system: basal gastric acid secretion; test: inhibition of basal gastric acid secretion (acute gastric fistula rat); format: in vivo, Female Sprague-Dawley rats; conditions: 10 mg./kg. intraduodenal
Method: Inhibition of basal gastric acid secretion was determined in the acute gastric fistula rat as follows. Female Sprague-Dawley rats (Charles River Laboratories) weighing 140-160 grams are fasted in individual cages for 18-24 hours. The rats are then lightly anesthetized with ether and their front teeth extracted to avoid destruction of the plastic cannula. A midline incision is then made and the stomach and duodenum exposed. A flanged polyvinyl tube is inserted into the fundic portion of the stomach and secured with a purse string suture line using 4-0 Mersilene. The rat is then dosed by injection of the compound into the duodenum (1.0 ml. per 100 grams body weight). After dosing, the abdominal wall and skin are closed using metal wound clips. The rat is replaced in a cage containing a longitudinal slit to allow the polyvinyl tube to hang freely. An 8 ml. plastic collecting tube is attached to the flanged cannula and hangs freely below the cage. The first 30 minute sample is discarded designating this time as zero. The collecting tube is attached again and samples removed at the end of 60 and 120 minutes. The hourly samples are then transferred to a 15 ml. centrifuge tube and centrifuged for 5-10 minutes. Total and sediment volume are then recorded with the supernatant volume being used as volume of secretion. A 1 ml. or less aliquot is then removed and placed in a 50 ml. beaker containing 10 ml. of distilled water. This sample is then titrated using 0.01N NaOH to pH 7.0 using a Beckman zeromatic pH meter. Volume, titratable acidity (meq/L) and total acid output (μ eq/hour) are recorded. Percent inhibition is determined by comparison with the appropriate control. Groups of three rats were used. All compounds are administered in vehicle (0.5% methocel, 0.4% Tween 80, saline) at a constant volume of 1 ml./100 gram rat. Samples were sonicated with care to prevent overheating.

diastolic blood pressure = test: hypotensive activity in anesthetized rats (minimal dose lowering diastolic blood pressure about 10 mm.); format: in vivo, Male Wistar strain rats; conditions: Rattus norvegicus; intravenous; dose producing a decrease of about 10 mm. in diastolic blood pressure
Method: This procedure is a modification of the technique described by Pike et al., Prostaglandins, Nobel Symposium 2, Stockholm, June, 1966; p. 165.
Male Wistar strain rats (Royal Hart Farms) averaging approximately 250 grams in weight were fastened to rat boards in a supine position by means of canvas vests and limb ties. The femoral area was infiltrated subcutaneously with lidocaine and the iliac artery and vein were exposed and cannulated. Arterial blood pressure (systolic/diastolic) was recorded using a Statham P23 Db pressure transducer-Offner dynograph system. To obtain a stable blood pressure, the animals were anesthetized before use with pentobarbital, 30 mg./kg. of body weight intravenously, and also were given hexamethonium bitartrate, 2 mg./kg., of body weight intravenously. The test compounds were prepared by ultrasonic dispersion in a saline-Tween 80 vehicle. A constant intravenous dose volume of 0.5 ml. was administered and test doses ranged from 0.1 to 10.0 mg./kg. of body weight. Increasing or decreasing doses were selected depending on the dose response obtained. In Table I below are set forth the minimal doses required to produce a decrease of about 10 mm. in diastolic blood pressure for typical compounds of the present invention.

[2] = system: Streptococcus pyogenes C 203; test: agar-dilution streak-plate antibacterial assay (8); format: cell-based; conditions: C203, read-out: Minimal inhibitory conc.
Method: The novel compounds of the present invention are also useful as antimicrobial agents. […] In this assay, the compounds to be tested are made up to contain 2.5 mg. of test compound per milliliter of solution. Observing sterile techniques, two-fold serial dilutions are made of each test solution. One milliliter of each of the original solutions and of each of the serial dilutions is then added to 9 ml. of warm sterile nutrient agar capable of supporting growth of the bacterial test cultures. A second set of agar dilutions is prepared identical to the first except that the nutrient agar is designed to support the growth of the fungal test cultures. […] The test bacteria and yeast-like fungi are prepared for use by growing in broth overnight. The spores of the filamentous fungi are harvested from mature agar slant cultures and are suspended in sterile physiological saline solution. A loopful of each of the resulting live suspensions is then, still employing sterile techniques, streaked upon the surfaces of each of the agar plates and the resulting streaked plates are then incubated. After an appropriate period of time, each of the streaks on each of the plates is inspected visually and the extent, if any, of bacterial or fungal growth is noted. The minimal inhibitory concentration (expressed in micrograms per milliliter) is defined as the concentration of test compound causing complete inhibition of growth of any particular organism. In a representative operation, and merely by way of illustration, the minimal inhibitory concentration of typical compounds of the present invention against a variety of test organisms as determined in the above-described assay are set forth in Tables II and III below: […]

gerbil ascending colon = test: contraction of gerbil colon by dl-PGE1; conditions: final concentration of 200 ng./ml.; preliminary tests

Row | MIC [2] [µg/mL] | Compound | % Inhibition after 120 minutes, Total Acid Output [1] [%] | % Inhibition after 120 minutes, Total Acidity [1] [%] | minimal effective dose (diastolic blood pressure) [mg/kg] | muscle contraction (gerbil ascending colon)
1 | – | CCCCCC/C=C/[C@H]1CCC(=O)[C@@H]1CCCCCCC(=O)N(C(=O)Nc1ccc(N(C)C)cc1)c1ccc(N(C)C)cc1 (relative stereo) [4,4'-bis(dimethylamino)-N-{7-[trans-2-(1-octenyl)-5-oxocyclopentyl]-heptanoyl}carbanilide] | 72 | 60 | – | –
2 | 5 (≈ 12.5 µM) | CCCCCC/C=C/[C@H]1CCC(=O)[C@@H]1CCCCCCC(=O)Nc1cccnc1 (relative stereo) [N-(pyridyl-3)-9-oxo-13-trans-prostenamide] | 54 | 30 | 2 to 8 | –
3 | – | CCCCC[C@H](O)/C=C/[C@H]1[C@H](O)CC(=O)[C@@H]1CCCCCCC(=O)O (relative stereo) [dl-PGE1, prostaglandin-E1] | – | – | – | maximal muscle contraction
